Assay results taken from patent US12577231B2, “Androgen receptor PROTACS” (GlaxoSmithKline Intellectual Property Development Limited, priority 2023, dated 2026).

target: T1, Androgen Receptor, LNCaP (AR T878A) (Homo sapiens, UniProt P10275, T878A); experiment: Androgen Receptor Degradation-Imaging Assay, LNCaP cell line; assay type: cell-based; details: 16 hours treatment, maximum observed degradation
T1 construct: endogenous in cells; host or cells: LNCaP
T1 sequence (P10275 1-920 T878A): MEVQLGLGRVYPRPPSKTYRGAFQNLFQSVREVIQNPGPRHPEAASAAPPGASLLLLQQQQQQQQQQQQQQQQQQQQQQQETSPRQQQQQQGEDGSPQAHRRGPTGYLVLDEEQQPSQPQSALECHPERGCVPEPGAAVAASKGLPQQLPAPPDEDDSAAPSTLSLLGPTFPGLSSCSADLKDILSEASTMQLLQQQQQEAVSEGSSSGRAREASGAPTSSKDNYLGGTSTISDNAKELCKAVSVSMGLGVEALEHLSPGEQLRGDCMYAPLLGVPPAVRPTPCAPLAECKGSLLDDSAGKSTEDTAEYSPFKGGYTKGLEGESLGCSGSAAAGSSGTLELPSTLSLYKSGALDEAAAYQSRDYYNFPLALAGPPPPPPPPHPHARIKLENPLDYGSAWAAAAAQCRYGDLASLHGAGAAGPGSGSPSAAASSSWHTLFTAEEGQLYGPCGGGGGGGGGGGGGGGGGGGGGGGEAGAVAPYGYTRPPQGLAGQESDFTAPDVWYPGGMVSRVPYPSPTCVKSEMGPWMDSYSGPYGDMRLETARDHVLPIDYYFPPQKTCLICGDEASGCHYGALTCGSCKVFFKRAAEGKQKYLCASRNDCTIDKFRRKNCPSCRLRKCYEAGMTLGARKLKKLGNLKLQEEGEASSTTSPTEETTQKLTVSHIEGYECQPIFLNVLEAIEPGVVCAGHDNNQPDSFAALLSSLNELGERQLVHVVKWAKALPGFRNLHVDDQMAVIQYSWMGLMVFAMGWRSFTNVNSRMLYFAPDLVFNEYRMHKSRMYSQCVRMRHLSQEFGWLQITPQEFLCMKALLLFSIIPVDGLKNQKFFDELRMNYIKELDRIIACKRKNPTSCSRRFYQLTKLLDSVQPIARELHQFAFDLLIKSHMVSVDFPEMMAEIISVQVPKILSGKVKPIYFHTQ
Description: Degradation of Androgen Receptor (AR) protein in human prostate cancer cell lines (MDA-PCa-2b (AR T878A/L702H), LNCaP (AR T878A), VCaP (AR wild type and amplified) 22RV1 (AR H875Y) and PC3 (AR negative control)) treated with AR PROTACs was quantified using immunofluorescence. Prostate cancer cells were plated (MDA-PCa-2b, and VCaP 16,000 cells/well; LNCaP and 22RV1 32,000 cells/well, and PC3 8,000 cells/well) in an optical bottom 96-well cell culture plate and allowed to attach overnight. The prostate cancer cell lines were treated for 16 hours with a 10-point 3-fold dilution series (dose range=0.02 nM to 333 nM). PC3 is included as an AR negative control and not treated with compound. Cells are fixed and permeabilized with 4% formaldehyde, blocked with 10% goat serum in immunofluorescence (IF) buffer (130 mM NaCl, 7 mM Na2HPO4, 3.5 mM NaH2PO4, 7.7 mM NaN3, 0.1% BSA, 0.2% Triton X, 0.05% Tween 20) prior to overnight incubation with rabbit antibody specific for C terminus of AR (commercially available from RevMaB Biosciences). Following washes with IF buffer, cells were incubated with fluorescent secondary antibody (Goat anti-rabbit Alexa 647; commercially available from Invitrogen) and Hoechst nuclear stain (commercially available from Themo Scientific) prior to quantification of nuclear AR levels via Opera Phenix high-content fluorescent imager using a 40× water objective. Image analysis was performed with Harmony software.
The averaged nuclear Alexa 647 median fluorescence intensity (MFI) of PC3 cells is subtracted from the nuclear Alexa 647 MFI of PROTAC treated and DMSO control treated cells. % AR remaining is calculated for PROTAC treatments as a percent of the DMSO control (MFI PROTAC treated/MFI DMSO control treated)*100). DC50 and the Dmax values, were obtained from these normalised values fitted with a 4-parameter sigmoidal response curve (Xlfit software). The DC50 is the interpolated concentration of PROTAC corresponding to 50% of the protein being degraded, and the Dmax parameter is the maximum experimentally observed degradation.

Dmax, ≥ 80%:
CC1(C)[C@H](NC(=O)c2cc(F)c(N3CCC(CN4CCC(n5ncc6c(N7CCC(=O)NC7=O)cccc65)CC4)CC3)c(F)c2)C(C)(C)[C@H]1Oc1ccc(C#N)c2ncccc12 [Example 30, N-((1r,3r)-3-((8-Cyanoquinolin-5-yl)oxy)-2,2,4,4-tetramethylcyclobutyl)-4-(4-((4-(4-(2,4-dioxotetrahydropyrimidin-1(2H)-yl)-1H-indazol-1-yl)piperidin-1-yl)methyl)piperidin-1-yl)-3,5-difluorobenzamide]
CC1(C)[C@H](NC(=O)c2ccc(N3CCC(O)(CN4CCC(n5ncc6c(N7CCC(=O)NC7=O)cccc65)CC4)CC3)c(F)c2)C(C)(C)[C@H]1Oc1ccc(C#N)c2ncccc12 [Example 48, N-((1r,3r)-3-((8-Cyanoquinolin-5-yl)oxy)-2,2,4,4-tetramethylcyclobutyl)-4-(4-((4-(4-(2,4-dioxotetrahydropyrimidin-1(2H)-yl)-1H-indazol-1-yl)piperidin-1-yl)methyl)-4-hydroxypiperidin-1-yl)-3-fluorobenzamide]
CC1(C)[C@H](NC(=O)c2ccc(N3CCC(CN4CCC(n5ncc6c(N7CCC(=O)NC7=O)cccc65)CC4)CC3)c(F)c2)C(C)(C)[C@H]1Oc1ccc(C#N)c2c1CCCO2 [Example 8, N-((1r,3r)-3-((8-Cyanochroman-5-yl)oxy)-2,2,4,4-tetramethylcyclobutyl)-4-(4-((4-(4-(2,4-dioxotetrahydropyrimidin-1(2H)-yl)-1H-indazol-1-yl)piperidin-1-yl)methyl)piperidin-1-yl)-3-fluorobenzamide]
CC1(C)[C@H](NC(=O)c2ccc(N3CCC(CN4CCC(n5ncc6c(N7CCC(=O)NC7=O)nccc65)CC4)CC3)c(F)c2)C(C)(C)[C@H]1Oc1ccc(C#N)c2ncccc12 [Example 39, N-((1r,3r)-3-((8-Cyanoquinolin-5-yl)oxy)-2,2,4,4-tetramethylcyclobutyl)-4-(4-((4-(4-(2,4-dioxotetrahydropyrimidin-1(2H)-yl)-1H-pyrazolo[4,3-c]pyridin-1-yl)piperidin-1-yl)methyl)piperidin-1-yl)-3-fluorobenzamide]
CC1(C)[C@H](NC(=O)c2ccc(N3CCC(CN4CCC(n5ccc6c(N7CCC(=O)NC7=O)ncnc65)CC4)CC3)c(F)c2)C(C)(C)[C@H]1Oc1ccc(C#N)c2ncccc12 [Example 47, N-((1r,3r)-3-((8-Cyanoquinolin-5-yl)oxy)-2,2,4,4-tetramethylcyclobutyl)-4-(4-((4-(4-(2,4-dioxotetrahydropyrimidin-1(2H)-yl)-7H-pyrrolo[2,3-d]pyrimidin-7-yl)piperidin-1-yl)methyl)piperidin-1-yl)-3-fluorobenzamide]
CC1(C)[C@H](NC(=O)c2ccc(N3CCC(CN4CCC(n5ccc6c(N7CCC(=O)NC7=O)ncnc65)CC4)CC3)cc2)C(C)(C)[C@H]1Oc1ccc(C#N)c2ncccc12 [Example 28, N-((1r,3r)-3-((8-Cyanoquinolin-5-yl)oxy)-2,2,4,4-tetramethylcyclobutyl)-4-(4-((4-(4-(2,4-dioxotetrahydropyrimidin-1(2H)-yl)-7H-pyrrolo[2,3-d]pyrimidin-7-yl)piperidin-1-yl)methyl)piperidin-1-yl)benzamide]
CC1(C)[C@H](NC(=O)c2ccc(N3CCC(CN4CCC(n5ncc6c(N7CCC(=O)NC7=O)cccc65)CC4)CC3)c(F)c2)C(C)(C)[C@H]1Oc1ccc(C#N)c2ncccc12 [Example 6, N-((1r,3r)-3-((8-Cyanoquinolin-5-yl)oxy)-2,2,4,4-tetramethylcyclobutyl)-4-(4-((4-(4-(2,4-dioxotetrahydropyrimidin-1(2H)-yl)-1H-indazol-1-yl)piperidin-1-yl)methyl)piperidin-1-yl)-3-fluorobenzamide]
